In patent US20220313690A1, “SYNERGISTIC EFFECT OF EYP001 AND IFN FOR THE TREATMENT OF HBV INFECTION” (ENYO PHARMA, priority 2019, published 2022):

Assays:
HBV pgRNA = HBV pgRNA change from baseline after 4-week treatment course in chronically infected HBV patients; format: in vivo, human; details: 4 weeks
Experimental: FIG. 1: HBV pgRNA (log 10 copies/mL) changes from baseline after a 4 week anti-HBV treatment course of FXR agonist EYP001a or placebo in combination with interferon in chronically infected previously untreated HBV patients. PBO: placebo. peg-IFN: pegylated interferon alpha2a. 150 BID: 150 mg twice daily. 300 QD: 300 mg once daily. pgRNA: pregenomic ribonucleic acid.
(§1) HBV chronically infected patients (male (n=39) and female (n=34)) underwent a 4-week treatment course as either daily oral FXR agonist EYP001a monotherapy or placebo or entecavir (ETV) in Part A of the study (n=48) or in combination with interferon (n=23, weekly sub-cutaneous injections of pegylated IFNα2a, PEG-IFN) in Part B. Patient characteristics were: mean age of 39.7 years (range: 19-63); 6 of 73 were HBeAg-positive; 70% treatment naïve; mean baselines HBV DNA 4.2 (±1.5 SD) log 10 IU/mL, HBsAg 3.5 (±0.8 SD) log 10 IU/mL, and genotypes A (25), B (8), C (10), D (7) and E (4).

FXR = target: T1, FXR (Homo sapiens, UniProt Q96RI1); test: FXR engagement markers (C4, FGF19) in HBV patients; format: in vivo; details: all EYP001 doses; data not shown
T1 construct: FXR engagement with all EYP001 doses led to decreases in C4 and increases in FGF19; from tissue; host or cells: endogenous FXR in the tissues of treated HBV patients (in vivo clinical study)
T1 sequence (Q96RI1 1-486): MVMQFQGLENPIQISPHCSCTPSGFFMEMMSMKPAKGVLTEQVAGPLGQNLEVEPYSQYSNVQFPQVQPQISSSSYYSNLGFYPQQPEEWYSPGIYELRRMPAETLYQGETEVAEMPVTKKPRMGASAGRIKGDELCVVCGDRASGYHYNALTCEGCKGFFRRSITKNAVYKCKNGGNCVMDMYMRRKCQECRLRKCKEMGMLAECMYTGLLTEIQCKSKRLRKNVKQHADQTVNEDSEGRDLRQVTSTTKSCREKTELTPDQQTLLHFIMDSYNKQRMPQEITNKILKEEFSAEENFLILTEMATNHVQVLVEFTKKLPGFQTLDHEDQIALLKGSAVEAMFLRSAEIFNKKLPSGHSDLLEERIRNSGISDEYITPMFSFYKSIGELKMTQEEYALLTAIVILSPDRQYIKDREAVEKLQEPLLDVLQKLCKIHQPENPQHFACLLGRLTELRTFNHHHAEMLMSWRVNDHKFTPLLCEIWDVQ
Excerpt: as §1

HBsAg = format: in vivo, human; details: 400 mg QD EYP001, end of treatment day 29, p<0.05
Excerpt: as §1

[1] = human, in vivo, 4 weeks
Experimental: Therefore, in a particular aspect, EYP001 is administered once a day.

HBV replication = test: Synergistic effect of combined treatment on HBV replication markers (pgRNA and HBcrAg) in patients; format: in vivo, human; details: same dose, same period of 4 weeks, monotherapy
Excerpt: By “a synergistic effect” is intended to refer to an effect for decreasing the HBV replication which is more than the sum of the effects of each molecule alone. HBV replication can be assessed by determining surface HBV antigen (HBsAg), HBeAg, HBV core related antigen (HBcrAg), HBV DNA, HBV pre-genomic RNA, HBV pre-core RNA and/or HBV cccDNA. More particularly, the effect is observed on the pre-genomic RNA (HBV pgRNA) and/or on the hepatitis B core related antigen (HBcrAg).
as §1, with “(4). FXR engagement with all EYP001 doses led to decreases in C4 and increases in FGF19 (data not shown).” for “(4).”
At end of treatment on day 29, 400 mg QD EYP001 decrease the mean HBsAg by −0.1 log 10 IU/mL (p<0.05). […]

HBV = details: chronic hepatitis B patients; Erken et al 2018; cited from earlier work
HBcrAg = HBcrAg change from baseline after 4-week treatment course in chronically infected HBV patients; format: in vivo, human; details: 4 weeks
Excerpt: PBO: placebo. peg-IFN: pegylated interferon alpha2a. HBcrAg: hepatitis B core-related antigen.
as §1

[2] = EYP001a 1 × 100 mg/day monotherapy, day 29
[3] = EYP001a 1 × 200 mg/day monotherapy, day 29
[4] = EYP001a 1 × 400 mg/day monotherapy, day 29
[5] = EYP001a 2 × 200 mg/day monotherapy, day 29
[6] = ETV open-label 0.5 mg/day, end of treatment day 29

| Structure (SMILES) | HBVpgRNA mean change (HBV pgRNA; [2]) [Log10 Copies mL] | HBVpgRNA mean change (HBV pgRNA; [3]) [Log10 Copies mL] | HBVpgRNA mean change (HBV pgRNA; [4]) [Log10 Copies mL] | HBVpgRNA mean change (HBV pgRNA; [5]) [Log10 Copies mL] | change in C4 (FXR) | change in FGF19 (FXR) | mean HBsAg decrease (HBsAg) [log 10 IU/mL] | pruritus, once a day versus twice a day [1] | effect when used alone (HBV replication) | HBV viral load (HBV) | HBcrAg mean change (HBcrAg; [2]) [Log10 IU mL] | HBcrAg mean change (HBcrAg; [3]) [Log10 IU mL] | HBcrAg mean change (HBcrAg; [4]) [Log10 IU mL] | HBcrAg mean change (HBcrAg; [5]) [Log10 IU mL] | HBVpgRNA mean change (HBV pgRNA; [6]) [Log10 Copies mL] | HBcrAg mean change (HBcrAg; [6]) [Log10 IU mL] |
| --- | --- | --- | --- | --- | --- | --- | --- | --- | --- | --- | --- | --- | --- | --- | --- | --- |
| O=C(O)c1cc2c(Cl)c(N3CCN(S(=O)(=O)c4c(Cl)cccc4Cl)CC3)ccc2o1 [EYP001] | 0.5 | 0.4 | 0.2 | −0.1 | decreases | increases | −0.1 | fewer pruritus occurs when EYP001 is administered once a day | do not show a significant effect | reduces HBV viral load | −0.3 | 0.2 | 0.02 | 1.2 |  |  |
| C=C1[C@H](CO)[C@@H](O)C[C@@H]1n1cnc2c(=O)[nH]c(N)nc21 [ETV, entecavir, reference compound] |  |  |  |  |  |  |  |  |  |  |  |  |  |  | −0.3 | 0.03 |
